Values after ≈ are worked out from the molar mass of the structure shown.
Columns and labels:
[1] = target: AMPA receptors (rat cerebral cortical membrane homogenate); test: 3H-AMPA binding (Test 1): displacement of 3H-AMPA from AMPA type receptors; conditions: 5 nM 3H-AMPA, 0° C., 30 min, pH 7.1
Method: The affinity of a substance for one or more of the different types of excitatory amino acid receptors may be studied in simple binding experiments. In essense, the method involves incubation of a particular selected radiolabelled ligand and the particular specific substance to be investigated with brain homogenate which contains the receptor. Measurement of receptor occupancy is made by determination of the radioactivity bound to the homogenate and subtraction of nonspecific binding.
AMPA receptor binding may be studied by using ^3 H-AMPA as radioligand.
The pharmacological properties of the compounds of the present invention can be illustrated by determining their capability for displacing radioactively labelled 2-amino-3-hydroxy-5-methyl-4-isoxazolepropionic acid (AMPA) from the AMPA type receptors. […]
500 μl of thawed rat cerebral cortical membrane homogenate in Tris-HCl (30 mM), CaCI2 (2.5 mM) and KSCN (100 mM) pH 7.1 were incubated at 0° C. for 30 min. with 25 μl ^3 H-AMPA (5 nM final concentration) and the test compound and buffer. Non specific binding was determined by incubation with L-glutamic acid ([…] final concentration). […] Bound radioactivity was measured by scintillation counting. IC50 was determined by Hill analysis of at least four concentrations of test compound.

[2] = test system: quisqualic acid stimulated spreading depression in chicken retina; test: Spreading depression (Test 2): inhibition of quisqualic acid stimulated spreading depression in chicken retina; assay type: cell-based; conditions: Gallus gallus, 0.25 h, quisqualate 1 μg/ml, 26° C., 15 min incubation with test compound, read-out: TEST 2 IC50 (50% maximal inhibition of quisqualic acid stimulated spreading depression)
From the text: The influence of glutamic add analogues on secondary effects of glutamate receptor interactions may be studied in vitro by using the phenomenon of spreading depression in chicken retina. Such experiments will provide information as to the efficades (agonist/antagonist) of the test substances. This is in contrast to binding studies, which only provide information on the affinities of the compounds for the receptor.
The pharmacological properties of the compounds of the present invention can be illustrated by determining their capability for displacing radioactively labelled 2-amino-3-hydroxy-5-methyl-4-isoxazolepropionic acid (AMPA) from the AMPA type receptors.
The antagonism is measured by determining the IC50 value which represents the concentration which produces a ,50% maximal inhibition of quisqualic acid stimulated spreading depression in chicken retina.
Spreading depression (Test 2) […]
The eyes are initially incubated in normal P.S.S. for 15-30 min. and then transferred to P.S.S. containing quisqualate (1μ g/ml). […] The time taken for an S.D. to start in each eye is measured.
After a further 15 min. of incubation in normal P.S.S. the eyes are transferred to normal P.S.S. containing the test compound and incubated for 15 min. […] The time taken for an S.D. to start in each eye is again measured. […]

| TEST 1 IC50 (displacement of 50% of the specific binding of 3H-AMPA) [1] [µg/mL] | IC50 [2] [µg/mL] | Structure (SMILES) |
| --- | --- | --- |
| 1.3 | 1.3 (≈ 4.81 µM) | O=c1[nH]c2cc(C(F)(F)F)ccc2n2c(=O)[nH]nc12 [Example 3, 7-Trifluoromethyl 1,2, 4!triazolo 4,3-a!quinoxaline-1,4(2H,5H)-dione] |
| 0.09 | 0.47 (≈ 2.07 µM) | N#Cc1ccc2c(c1)[nH]c(=O)c1n[nH]c(=O)n12 [Example 4, 7-Cyano 1,2,4!triazolo 4,3-a!quinoxaline-1,4(2H, 5H)-dione] |

Reference: patent US5504085A, “Triazolo quinoxalines and their preparation and use” (Novo Nordisk A/S, priority 1991, dated 1996)
